From patent US10125134B2 (Mirati Therapeutics, Inc., priority 2016, dated 2018)
pIC50: −log10 of the molar value. Like-named read-outs stand apart in the source and are kept apart here.

Columns and labels:
[1] = biological target: KRas G12C (Homo sapiens, UniProt P01116, C118S/C51S/C80L/G12C); assay: KRas G12C Modification Assay (LCMS detection of covalent adduct); assay type: binding; details: normalized percent of control; tested at 5 μM concentration for 3 hours
How it was run: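 Cys-light KRas G12C mutant protein incubated with compound in K-Ras assay buffer, reactions quenched at set time points with 25 mM acetic acid and analysed by intact-protein LC/MS on a C-3 column. Deconvoluted mass heights expressed as percent of control (POC) relative to compound-free protein.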

[2] = test system: NCI-H358 cells (express KRas G12C), Phospho-ERK; assay: Cellular inhibition of KRas G12C: Phospho-ERK in NCI-H358 cells; assay type: cell-based; details: pERK(Thr202/Tyr204) normalized with GAPDH, NCI-H358 cells, 3 hours, read-out: IC50
How it was run: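 IC50 derived by 4-parameter fit of GAPDH-normalized pERK(Thr202/Tyr204) signal, as percent of DMSO control. Signal came from in-cell immunodetection with infrared secondaries after 3 h compound exposure of KRas G12C NCI-H358 cells at 0.5% DMSO.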

POC [1]	SMILES	pIC50 ([2]; Homo sapiens, NCI-H358, 3 h)	pIC50 ([2]; Homo sapiens)	pIC50 [2]
C (“C”>50% POC)	C=CC(=O)N1CCN(c2nc(OC[C@@H]3CCCN3C)nc3c2CCN(c2c(OC)ccc4[nH]ncc24)C3)CC1 [Example 157, (S)-1-(4-(7-(5-methoxy-1H-indazol-4-yl)-2-((1-methylpyrrolidin-2-yl)methoxy)-5,6,7,8-tetrahydropyrido[3,4-d]pyrimidin-4-yl)piperazin-1-yl)prop-2-en-1-one]	< 6.00	–	–
C (“C”>50% POC)	C=CC(=O)N1CCN(c2nc(O[C@H](C)CN(C)C)nc3c2CCN(c2c(C)ccc4[nH]ncc24)C3)CC1CC#N (stereo partly drawn) [Example 152, 2-[4-[2-[(1R)-2-(dimethylamino)-1-methyl-ethoxy]-7-(5-methyl-1H-indazol-4-yl)-6,8-dihydro-5H-pyrido[3,4-d]pyrimidin-4-yl]-1-prop-2-enoyl-piperazin-2-yl]acetonitrile]	–	6.00 to 10.00	–
B (“B”>25% POC−≤50% POC)	C=CC(=O)N1CCN(c2nc(O[C@@H](C)CN(C)C)nc3c2CCN(c2cc(O)cc4ccccc24)C3)CC1 [Example 8, (S)-1-(4-(2-((1-(dimethylamino)propan-2-yl)oxy)-7-(3-hydroxynaphthalen-1-yl)-5,6,7,8-tetrahydropyrido[3,4-d]pyrimidin-4-yl)piperazin-1-yl)prop-2-en-1-one]	< 6.00	–	–
C (“C”>50% POC)	C=CC(=O)N1CCN(c2nc(N3CCN(C)CC3)nc3c2CCN(c2cc(O)cc4ccccc24)C3)CC1 [Example 12, 1-(4-(7-(3-hydroxynaphthalen-1-yl)-2-(4-methylpiperazin-1-yl)-5,6,7,8-tetrahydropyrido[3,4-d]pyrimidin-4-yl)piperazin-1-yl)prop-2-en-1-one]	< 6.00	–	–
C (“C”>50% POC)	C=CC(=O)N1CCN(c2nc(NC3CCN(C4CC4)CC3)nc3c2CCN(c2cc(O)cc4ccccc24)C3)CC1 [Example 204, 1-(4-(2-((1-cyclopropylpiperidin-4-yl)amino)-7-(3-hydroxynaphthalen-1-yl)-5,6,7,8-tetrahydropyrido[3,4-d]pyrimidin-4-yl)piperazin-1-yl)prop-2-en-1-one]	–	< 6.00	–
C (“C”>50% POC)	C=CC(=O)N1CCN(c2nc(OC[C@@H]3CCCN3C)nc3c2CCN(c2cccc4cccnc24)C3)CC1CC#N (stereo partly drawn) [Example 247, 2-(1-acryloyl-4-(2-(((S)-1-methylpyrrolidin-2-yl)methoxy)-7-(quinolin-8-yl)-5,6,7,8-tetrahydropyrido[3,4-d]pyrimidin-4-yl)piperazin-2-yl)acetonitrile]	< 6.00	–	–
C (“C”>50% POC)	C=CC(=O)N1CCN(c2nc(OC[C@@H]3C[C@H](O)CN3C)nc3c2CCN(c2cccc4ccccc24)C3)CC1CC#N (stereo partly drawn) [Example 418, 2-(1-acryloyl-4-(2-(((2S,4S)-4-hydroxy-1-methylpyrrolidin-2-yl)methoxy)-7-(naphthalen-1-yl)-5,6,7,8-tetrahydropyrido[3,4-d]pyrimidin-4-yl)piperazin-2-yl)acetonitrile]	6.00 to 10.00	–	–
C (“C”>50% POC)	C=CC(=O)N1CCN(c2nc(OC[C@@H]3CCCN3C)nc3c2CCN(c2cccc4ccccc24)C3)CC1COC (stereo partly drawn) [Example 428, 1-(2-(methoxymethyl)-4-(2-(((S)-1-methylpyrrolidin-2-yl)methoxy)-7-(naphthalen-1-yl)-5,6,7,8-tetrahydropyrido[3,4-d]pyrimidin-4-yl)piperazin-1-yl)prop-2-en-1-one]	–	–	< 6.00
C (“C”>50% POC)	C=CC(=O)N1CCN(c2nc(OC[C@@H]3COCCN3C)nc3c2CCN(c2cccc4ccccc24)C3)CC1CC#N (stereo partly drawn) [Example 443, 2-(1-Acryloyl-4-(2-(((S)-4-methylmorpholin-3-yl)methoxy)-7-(naphthalen-1-yl)-5,6,7,8-tetrahydropyrido[3,4-d]pyrimidin-4-yl)piperazin-2-yl)acetonitrile]	–	–	6.00 to 10.00
C (“C”>50% POC)	C=CC(=O)N1CCN(c2nc(OCC3CCN(Cc4ccccc4)C3)nc3c2CCN(c2cc(O)cc4ccccc24)C3)CC1 (stereo not drawn) [Example 189, 1-(4-(2-((1-benzylpyrrolidin-3-yl)methoxy)-7-(3-hydroxynaphthalen-1-yl)-5,6,7,8-tetrahydropyrido[3,4-d]pyrimidin-4-yl)piperazin-1-yl)prop-2-en-1-one]	< 6.00	–	–
C (“C”>50% POC)	C=CC(=O)N1CCN(c2nc(OC[C@H]3CN(C)CCO3)nc3c2CCN(c2cccc4ccccc24)C3)CC1CC#N (stereo partly drawn) [Example 270, 2-(1-acryloyl-4-(2-(((R)-4-methylmorpholin-2-yl)methoxy)-7-(naphthalen 1-yl)-5,6,7,8-tetrahydropyrido[3,4-d]pyrimidin-4-yl)piperazin-2-yl)acetonitrile]	6.00 to 10.00	–	–
C (“C”>50% POC)	C=CC(=O)N1CCN(c2nc(OCC3CCCN(C)C3)nc3c2CCN(c2cc(O)cc4ccccc24)C3)CC1 (stereo not drawn) [Example 72, 1-(4-(7-(3-hydroxynaphthalen-1-yl)-2-((1-methylpiperidin-3-yl)methoxy)-5,6,7,8-tetrahydropyrido[3,4-d]pyrimidin-4-yl)piperazin-1-yl)prop-2-en-1-one]	6.00 to 10.00	–	–
C (“C”>50% POC)	C=CC(=O)N1CCN(c2nc(OC[C@@H]3CCCN3C)nc3c2CCN(c2cccc4ccc(C)cc24)C3)C[C@@H]1CC#N [Example 326, 2-((S)-1-acryloyl-4-(7-(7-methylnaphthalen-1-yl)-2-(((S)-1-methylpyrrolidin-2-yl)methoxy)-5,6,7,8-tetrahydropyrido[3,4-d]pyrimidin-4-yl)piperazin-2-yl)acetonitrile]	6.00 to 10.00	–	–
C (“C”>50% POC)	C=CC(=O)N1CCN(c2nc(OC[C@H](O)CN3CCOCC3)nc3c2CCN(c2cc(O)cc4ccccc24)C3)CC1 (single isomer, unassigned) [Example 215]	< 6.00	–	–
C (“C”>50% POC)	CC#CC(=O)N1CCN(c2nc(OC[C@@H]3CCCN3C)nc3c2CCN(c2cccc4cccc(Cl)c24)C3)C[C@@H]1CC#N [Example 391, 2-((S)-1-(but-2-ynoyl)-4-(7-(8-chloronaphthalen-1-yl)-2-(((S)-1-methylpyrrolidin-2-yl)methoxy)-5,6,7,8-tetrahydropyrido[3,4-d]pyrimidin-4-yl)piperazin-2-yl)acetonitrile]	6.00 to 10.00	–	–
C (“C”>50% POC)	C=CC(=O)N1CCN(c2nc(OCCN3CCCCC3)nc3c2CCN(c2cccc4ccccc24)C3)CC1CC#N (stereo not drawn) [Example 303, 2-[4-[7-(1-naphthyl)-2-[2-(1-piperidyl)ethoxy]-6,8-dihydro-5H-pyrido[3,4-d]pyrimidin-4-yl]-1-prop-2-enoyl-piperazin-2-yl]acetonitrile]	6.00 to 10.00	–	–
C (“C”>50% POC)	C=CC(=O)N1CCN(c2nc(OC[C@H]3CCCN3C)nc3c2CCN(c2cc(O)cc4ccccc24)C3)[C@@H](C)C1 [Example 203, 1-((S)-4-(7-(3-hydroxynaphthalen-1-yl)-2-(((R)-1-methylpyrrolidin-2-yl)methoxy)-5,6,7,8-tetrahydropyrido[3,4-d]pyrimidin-4-yl)-3-methylpiperazin-1-yl)prop-2-en-1-one]	6.00 to 10.00	–	–
C (“C”>50% POC)	C=CC(=O)N1CCN(c2nc(OC[C@@H]3CCCN3C)nc3c2CCN(c2ccccc2Cl)C3)CC1CC#N (stereo partly drawn) [Example 229, 2-(1-acryloyl-4-(7-(2-chlorophenyl)-2-(((S)-1-methylpyrrolidin-2-yl)methoxy)-5,6,7,8-tetrahydropyrido[3,4-d]pyrimidin-4-yl)piperazin-2-yl)acetonitrile]	6.00 to 10.00	–	–
